Assay results taken from patent publication US6034231A, “Human CNP gene and precursor protein” (Suntory Limited, priority 1990, dated 2000).
Positions of bridges follow the written chain, without caps; N, C: chain ends. No end group written: not given here.

Test system: chick rectum
Conditions: read-out: EC50, chick rectum relaxant activity; isolated chick rectum
Description: A chick rectum relaxant activity measurement was conducted in accordance with the method of Currie et al. described in Nature, 221, 1-13, 1983.

## DLRVDTKSRAAWARLLQEHPNARKYKGANKKGLSKGCFGLKLDRIGSMSGLGC (disulfide 37-53) [hCNP-53]
  EC50: 870 ± 100 pM
